This note sets out measurements from patent US20040086949A1, “Method for preparing a ligand presenting assembly (LPA), an LPA and uses thereof” (Statens Serum Institut, priority 1998, published 2004).

Test [1] has as its system IgM antibodies in sera from patients with neuroborreliosis. The test can be described thus: Indirect IgM-ELISA with LPA-I or biotinylated-pepC10 as coated antigen. The format is binding, human. Particulars: NB sera (n = 97), sera diluted 1/200, 98% specific cut-off. The procedure: The capability of LPA-I according to the present invention to react with sera from patients with neuroborreliosis was evaluated against that of an ELISA based on biotinylated-pepC10, wherein pepC10 is identical to the amino acid sequence of Seq. ID 1.
Preparing plates for the LPA-I-ELISA: Microtiter plates (Maxisorb; Nunc, Roskilde, Denmark) were coated overnight at 4° C. with 0.6 μg/ml of LPA-I diluted in 0.05 M bicarbonate pH 9.6, blocked with 3% (w/v) milk powder in phosphate-buffered saline (PBS) for 1 h, and reacted with sera diluted 1/200 in 1% (w/v) milk powder in PBS containing 0.05% Tween 20 (PBST) and 0.7 M NaCl for 2 h. The secondary antibody was a peroxidase conjugated rabbit anti-human IgM (Dako, Denmark, codes P-215) diluted 1/1000 in 1% (w/v) milk powder in PBST. After 1 h of incubation, bound secondary antibody was quantitated by colouring with o-phenylenediamine and H2O2 in citrate buffer (Sigma, St. Louis, Mo.) for 30 min. Optical density (OD) at 492 nm was determined in a plate reader (EAR 400 AC-SLT, Labinstruments, Austria). Plates were washed extensively with PBST-0.5M NaCl between each incubation step. The 98% specific diagnostic cut-off level was OD of 0.270 for IgM detection.
Preparing plates for the biotinylated-pepC10-ELISA: ELISAs with biotinylated-pepC10, were performed essentially as described above for LPA-I, except that microtiter plates were first coated with streptavidin (2.5 μg/ml) (Zymed, S. Avidinii) in citrate buffer (pH 5) overnight at 4° C., and then incubated with biotinylated pepC10 (0.1 μg/ml) in 1% (w/v) milk powder in PBST-0.37 M NaCl overnight at 4° C.
(i) Sera from 97 Danish patients with neuroborreliosis (NB). All patients had been hospitalised in 1994 ([…] between 4 and 80 years of age; median age, 49). The selection was based on a positive test for B. burgdorferi specific intrathecal antibody synthesis. The diagnosis was further corroborated by the presence of lymphocytic pleocytosis in CSF (median cell count, 124/μl) and one of the following manifestations: lymphocytic meningoradiculitis with typical painful radiculitis, mononeuritis multiplex (Bannwarth's syndrome), radiculomyelitis, monosymptomatic fascialis paresis (all children), subacute lymphocytic meningitis, and chronic progressive encephalomyelitis. Of the 100 patients, 48 recalled a previous EM-like skin lesion. Disease duration, defined as the time from onset of neurological symptoms until diagnostic blood and CSF samples were taken, ranged from 1 week to 26 weeks (median duration, 3 weeks).
Sera from 80 healthy controls were used for determination of the 98%-specific cut-off level in ELISAs.

The subject of test [2] is C-terminal B-cell epitope of OspC. The test can be described thus: Immunogenicity of LPA-VI in mice, serum Ig ELISA against recombinant OspC and LPA-I. The format is in vivo. To be noted: five female C57 black mice, 5 μg i.p. on days 0 and 14 with Al(OH)3 and Freund's incomplete adjuvant, sera diluted 200 fold. As for the experimental part:
The capability of an LPA according to the present invention to induce a humoral immune response was studied by immunising mice with LPA-VI. Five female C57 black mice (age 6 to 8 weeks) were immunised two times intraperitoneally with a 2-week interval and were bled on days 0, 14, and 28. Each immunisation dose contained. 5 μg of LPA-VI dissolved in 0.25 ml 0.9% NaCl and supplemented with 1 mg Al(OH)3 (Superfos Biosector, Denmark) and 0.25 ml Freund's incomplete adjuvant. The serum samples were diluted 200 fold and then tested by ELISA for Ig reactivity against OspC produced on recombinant form (WO 97/42221) and LPA-I (FIG. 8).
FIG. 8. Mean ELISA titer of sera from five mice immunised with LPA-VI on days 0 and 14. The microdilution plates were coated with LPA-I (diamond) or recombinant OspC (Squares), and the sera were analysed in a 200-fold dilution.

Ends that are not written are not given here.

On to “FmocN(CH2CO-ProValValAlaGluSerProLysLysPro-OH)2 [LPA-I]”, for which, in test [1], the “% of IgM reactive sera (frequency of positive Lyme borreliosis sera)” value was 42.3% and the “No. of IgM reactive sera” value amounted to 41.
As to “(HO-ProLysLysProSerGluAlaValValPro-COCH2)2N-Lys(AlaSerAlaAlaAlaGluIleGlyAlaPheAsnTrpGlnGlnGluThrMet-H)2 [LPA-VI]”, in test [2], the “induction of antibodies against the C-terminal B-cell epitope of OspC” value was “highly effective in inducing antibodies”.
Take “biotinylated-pepC10: biotinylated peptide; pepC10 is identical to the amino acid sequence of Seq. ID 1 (ProValValAlaGluSerProLysLysPro), bound to streptavidin-coated plates (PVVAESPKKP; also: biotinylated, place not given here) [reference compound]”: in test [1], the “% of IgM reactive sera (frequency of positive Lyme borreliosis sera)” value turned out to be 43.3% and the “No. of IgM reactive sera” value is listed as 42.
